Test results reported in patent US8614217B2 (priority 2008, dated 2013).

Assay: log P(HCOOH) (HPLC/MS)
Assay type: physicochemical
Details: HCOOH (formic acid); read-out: log P(HCOOH)

SMILES | chromatographic logP
Cn1nnnc1C(=NOCc1cccc(N)n1)c1ccccc1 [6-[({[(1-methyl-1H-tetrazol-5-yl)(phenyl)methylene]amino}oxy)methyl]pyridin-2-amine] | 1.14
Cn1nnnc1C(=NOCc1cccc(N2C(=O)c3ccccc3C2=O)n1)c1ccccc1 [2-{6-[({[(1-methyl-1H-tetrazol-5-yl)(phenyl)methylene]amino}oxy)methyl]pyridin-2-yl}-1H-isoindole-1,3(2H)-dione] | 3.04
O=C1c2ccccc2C(=O)N1OCc1cccc(N2C(=O)c3ccccc3C2=O)n1 [2-(6-{[(1,3-dioxo-1,3-dihydro-2H-isoindol-2-yl)oxy]methyl}pyridin-2-yl)-1H-isoindole-1,3(2H)-dione] | 2.44

Same assay, conditions: HCOOH; read-out: log P(HCOOH)

SMILES | chromatographic logP
Cn1nnnc1C(=NOCc1cccc(N)n1)c1ccccc1 [6-[({[(1-methyl-1H-tetrazol-5-yl)(phenyl)methylene]amino}oxy)methyl]pyridin-2-amine] | 1.13

Same assay, conditions: HPLC on reversed phase columns, EEC directive 79/831 Annex V.A8; pH 2.7, 0.1% formic acid in water / acetonitrile gradient

SMILES | log p
Cc1nnnn1C(=NOCc1cccc(NC(=O)c2ccc(Cl)nc2)n1)c1ccccc1 [Example 121] | 3.15
Cc1nnnn1C(=NOCc1cccc(NC(=O)C2CCC(=O)O2)n1)c1ccccc1 (stereo not drawn) [Example 130] | 2.44
Cc1nnnn1C(=NOCc1cccc(NC(=O)COCc2ccccc2)n1)c1ccccc1 [Example 144] | 3.73
Cc1nnnn1C(=NOCc1cccc(NC(=O)CCC2CCCC2)n1)c1cccc(F)c1 [Example 45] | 4.33
C#CCCOC(=O)Nc1cccc(CON=C(c2cccc(F)c2)c2nnnn2C)n1 [Example 13] | 3.21
C#CCCCC(=O)Nc1cccc(CON=C(c2cccc(F)c2)n2nnnc2C)n1 [Example 35] | 3.15
Cn1nnnc1C(=NOCc1csc(NC(=O)Cc2ccsc2)n1)c1cccc(F)c1 [Example 233] | 3.21
Cn1nnnc1C(=NOCc1cccc(NC(=O)CCCc2ccsc2)n1)c1ccccc1 [Example 221] | 3.7
C=C(C)OC(=O)Nc1nc(CON=C(c2ccccc2)n2nnnc2C)cs1 [Example 104] | 2.96
Cn1nnnc1C(=NOCc1cccc(NC(=O)CSCc2ccccc2)n1)c1ccccc1 [Example 218] | 3.73
CCOC(=O)CCCC(=O)Nc1cccc(CON=C(c2ccccc2)n2nnnc2C)n1 [Example 148] | 2.98
Cc1nnnn1C(=NOCc1csc(NC(=O)COC2CC(C)CCC2C(C)C)n1)c1ccccc1 (mixture of isomers) [Example 86] | 5.48
Cc1nnnn1C(=NOCc1cccc(NC(=O)CC2CCCCC2)n1)c1cccc(F)c1 [Example 41] | 4.23
Cn1nnnc1C(=NOCc1csc(NC(=O)CC2CC2)n1)c1cccc(F)c1 [Example 170] | 2.98
Cn1nnnc1C(=NOCc1csc(NC(=O)CSCc2ccccc2)n1)c1cccc(F)c1 [Example 194] | 3.68

Same assay, conditions: HPLC on reversed phase columns, EEC directive 79/831 Annex V.A8; pH 2.7 with 0.1% formic acid in water and acetonitrile

SMILES | log p
CCOc1cccc(C(=O)Nc2cccc(CON=C(c3ccccc3)c3nnnn3C)n2)c1 [Example 313] | 3.79
CCOc1ccc(C(=O)Nc2nc(CON=C(c3ccccc3)c3nnnn3C)cs2)cc1 [Example 271] | 3.64
Cn1nnnc1C(=NOCc1csc(NC(=O)c2ccc(Cl)cc2)n1)c1ccccc1 [Example 333] | 3.74
Cc1ccc(C(=O)Nc2nc(CON=C(c3ccccc3)c3nnnn3C)cs2)cc1 [Example 335] | 3.59
COC(=O)CCCCC(=O)Nc1nc(CON=C(c2cccc(F)c2)c2nnnn2C)cs1 [Example 298] | 2.94
COCCOC(=O)Nc1nc(CON=C(c2cccc(F)c2)c2nnnn2C)cs1 [Example 301] | 2.66
Cc1ccccc1C(=O)Nc1cccc(CON=C(c2ccccc2)c2nnnn2C)n1 [Example 307] | 3.5
CC(Oc1ccc(F)cc1)C(=O)Nc1cccc(CON=C(c2ccccc2)c2nnnn2C)n1 (mixture of isomers) [Example 262] | 3.79
Cn1nnnc1C(=NOCc1csc(NC(=O)CC23CC4CC(CC(C4)C2)C3)n1)c1ccccc1 [Example 278] | 4.69
Cn1nnnc1C(=NOCc1csc(NC(=O)c2cccc(Cl)c2)n1)c1ccccc1 [Example 248] | 3.73
Cc1ccc(C(=O)Nc2cccc(CON=C(c3cccc(F)c3)c3nnnn3C)n2)c(Cl)c1 [Example 354] | 3.9
